Tests used:
JNK1 = target: JNK1; parameters: method as in Schepetkin et al., 2019; conditions: previously reported binding affinity; ref Schepetkin et al., 2019; cited from earlier work
CAIA in BALB/c mice = experiment: Collagen-antibody-induced arthritis (CAIA), clinical score and histopathology; assay type: in vivo; conditions: for CAIA joint histopathology / severity of CAIA (mean arthritis score): 30 mg/kg i.p. daily; for CAIA joint histopathology: day 1 to 9, vs saline; for severity of CAIA (mean arthritis score): day 1 to 9, vs vehicle; for therapeutic effect in CAIA compared to IQ-1S: 30 mg/kg i.p., days 6 and 7
Method: CAIA was induced in 7- to 8-week-old BALB/c mice from Charles River Laboratories (Wilmington, MA, USA) by i.p. injection of a cocktail of monoclonal anti-CII antibodies (Chondrex; 1.5 mg/mouse) on day 0, followed by i.p. lipopolysaccharide (LPS) injection (30 μg LPS from Escherichia coli strain 0111:B4 in PBS) on day 3. Control animals received an equal volume of PBS.
Arthritis development was evaluated daily for 10 days post-injection of the monoclonal antibody cocktail. Arthritis symptoms were scored on scale of 0 to 4 in accordance with the Chondrex Mouse Arthritis Scoring System in a blinded manner, as follows: 0, no signs of inflammation; 1, mild redness or swelling of single joint (one of the interphalangeal joints, metacarpophalangeal joints, carpal joint for the front paw, and tarsal joint for the hind); 2, two joints have redness and swelling; 3, all three joint types have redness and swelling; 4, maximal redness and swelling of entire paw leads to the disappearance of anatomical definition.
In CAIA, animals were sacrificed on day 14, and their forward and hind limbs were processed as described above. Three sections in the sagittal projection of joints, 40 µm apart, were examined by the same system with the grades ranging 0 to 4. Total H&E histopathological score for three sections included cartilage destruction, pannus formation, and synovial cells changes. For cartilage destruction, the scale was: 0—normal, superficial zone is smooth; 1—superficial fibrillations, some loss of surface lamina; 2—vertical clefts/erosion to the calcified cartilage up to 25% of the surface; 3—vertical clefts/erosion to the calcified cartilage 25% to 50% of the surface, 4—vertical clefts/erosion to the calcified cartilage more than 50% of the surface, severe chondrocytes, and cartilage matrix loss with new bone tissue substitution. For pannus formation the scale was: 0—normal; 1—exudate in the joint; 2—single inflammatory cells in the exudate; 3—mild infiltration of the inflammatory cells; 4—heavy inflammatory infiltration and debris in the joint. For synovial membrane changes the scale was: 0 – normal, 1 to 2 layer of synovial lining cells; 1—initial hyperplasia of the cells and increased number of lining cells layers; 2—increased number of lining cell layers, more than 3 to 4 layers and/or proliferation of sub-synovial tissue; 3—more than 4 layers of lining cells, focal infiltration of inflammatory cells, proliferation of subsynovial tissue; 4—more than four layers of lining cells, diffused infiltration of inflammatory cells, proliferation of sub-synovial tissue.

CIA in DBA1/J mice = experiment: Collagen-induced arthritis (CIA), clinical score and histopathology; assay type: in vivo; conditions: 30 mg/kg i.p. daily; for CIA joint histopathology: day 8 to 42, vs saline; for CIA symptoms (clinical score): day 8 to 42, vs vehicle
Method: DBA1/J male mice (6–8 weeks) were obtained from The Jackson Laboratories (Bar Harbor, ME, USA). All animal experiments were performed in accordance with National Institutes of Health guidelines and approved by the Montana State University Institutional Animal Care and Use Committee.
To induce CIA in DBA1/J mice, immunization-grade bovine Type II collagen (CII) (Chondrex, Redmond, WA, USA) was solubilized in 0.05 M acetic acid (2 mg/ml), and 100 μg of CII emulsified in complete Freund’s adjuvant containing 4 mg/ml Mycobacterium tuberculosis (Chondrex) were injected subcutaneously (s.c.) in the tail ([Kochetkova et al., 2010]).
Mice were scored using a scale of 0 to 3 for each limb, with a maximal total score of 12, as previously described ([Schepetkin et al., 2015]): 0, no signs of inflammation; 1, mild redness or swelling of single digits; 2, significant swelling of ankle or wrist with erythema; and 3, severe swelling and erythema of multiple joints.
At 44 days after CII injection (CIA) or 14 days after anti-CII antibody injection (CAIA), the mice were euthanized, and their hind limbs were collected and fixed in 10% neutral buffered formalin. The limbs were decalcified in 5% formic acid for 3 to 6 days, and the joints were embedded in paraffin. Eight 8-μm sections were cut using a sagittal projection with 40 µm spacing of the cuts. Hematoxylin and eosin (H&E) and toluidine blue (TB) staining were performed for each sample.
H&E histopathological scores for the joints were determined by using a graded scale ([Schramm et al., 2004]), separately for cartilage destruction, pannus formation, and synovial cells changes. For cartilage destruction, the scale was: 0—normal, superficial zone is smooth; 1—superficial fibrillations, some loss of surface lamina; 2—vertical clefts/erosion to the calcified cartilage up to 25% of the surface; 3—vertical clefts/erosion to the calcified cartilage more than 25% of the surface, severe chondrocytes, and cartilage matrix loss with new bone tissue substitution, bone destruction. […] All sections of the hind paws and knee joints were examined, the highest score was recorded, with a total maximum score of 36 possible per mouse. The loss of the proteoglycans and cartilage degeneration was also scored in TB-stained sections on a graded scale of 0–3, as previously described ([Bernotiene et al., 2004]): 0—no cartilage loss; 1 – minimal chondrocytes and proteoglycan loss in superficial zone; 2—moderate chondrocytes and proteoglycan loss into middle zone but above tidemark; and 3—severe cartilage degeneration through tidemark, with the maximum score of 12 possible per mouse.

JNK3 = target: JNK3; parameters: method as in Schepetkin et al., 2019; conditions: previously reported binding affinity; ref Schepetkin et al., 2019; cited from earlier work
[1] = Cytotoxicity assay (CellTiter-Glo), SW982; assay type: cell-based; conditions: human, SW982 cells; concentrations up to 50 µM; read-out: Cytotoxic effect SW982 IC50
Method: Cytotoxicity was analyzed using a CellTiter-Glo Luminescent Cell Viability Assay Kit (Promega), according to the manufacturer’s protocol. Briefly, cells were cultured at a density of 10^4 to 10^5 cells/well with different concentrations of test compounds (final concentration of DMSO was 1%) for the indicated periods of time (2, 12, or 24 h) at 37°C and 5% CO2. Following treatment, substrate was added to the cells, and the samples were analyzed with a Fluoroscan Ascent FL microplate reader.

SMILES | Kd (JNK1) | CAIA joint histopathology (CAIA in BALB/c mice) | severity of CAIA (mean arthritis score) (CAIA in BALB/c mice) | therapeutic effect in CAIA compared to IQ-1S (CAIA in BALB/c mice) | CIA joint histopathology (CIA in DBA1/J mice) | CIA symptoms (clinical score) (CIA in DBA1/J mice) | JNK3 Kd (JNK3) | IC50 [1]
O=C1c2ccccc2-n2c1nc1ccccc1c2=O [TRYP, indolo[2,1-b]quinazolin-6,12-dione] | 23 µM | little cartilage erosion, synovial hyperplasia, or cellular infiltration | significant reductions in the severity of CAIA | significantly greater | little cartilage erosion, synovial hyperplasia, or cellular infiltration | significant reductions in CIA symptoms | No binding | 19.1 ± 4.9 µM
O=c1c2ccccc2nc2n1-c1ccccc1/C2=N/O [TRYP-Ox, tryptanthrin-6-oxime] |  | little cartilage erosion, synovial hyperplasia, or cellular infiltration | significant reductions in the severity of CAIA | significantly greater | little cartilage erosion, synovial hyperplasia, or cellular infiltration | significant reductions in CIA symptoms |  | > 50 µM
